In publication PMC9322761, “Design, Synthesis and Biological Characterization of Histone Deacetylase 8 (HDAC8) Proteolysis Targeting Chimeras (PROTACs) with Anti-Neuroblastoma Activity” (International Journal of Molecular Sciences, 2022):

Tested on: acetylated SMC3
Test: Acetylation of HDAC8 substrate SMC3 in SK-N-BE(2)-C cells (Western blot)
Type: cell-based, human
Details: 10 µM
Procedure: To test the degradation of HDAC8 with the developed PROTACs, we selected the most promising compounds obtained from the cellular neuroblastoma testing; namely CRBN_1b, CRBN_1d, CRBN_1e, HyT_1m, and HyT_1p. Whole cell lysates from treated SK-N-BE(2)-C neuroblastoma cells were taken and the protein levels for HDAC8 and the acetylation of its substrate SMC3 were determined (Figure 6). As a control for HDAC6, we also assessed acetylation levels of α-tubulin. […]. A clear dose-dependent degradation of HDAC8 by PROTAC CRBN_1e was observed (Figure 6C). After 48 h, the HDAC8 protein level was back to baseline, presumably due to de novo protein synthesis. […]. Western blot analysis was performed as described previously (Kolbinger et al.). […]
Figure 6 (A) SK-N-BE(2)-C neuroblastoma cells were treated for indicated time points with 10 µM of PROTACs. Degradation of HDAC8 and acetylation of HDAC8 target was analyzed via Western blot. […] Acetylation of HDAC8 target SMC3 and HDAC6 target tubulin, as well as total HDAC8 levels, were assessed by Western blot. Quantified ac-SMC3 or ac-tubulin expression, respectively, was normalized to the respective tubulin loading control and to the solvent control (DMSO). This quantification is reflected by the numbers below each blot. […] Total HDAC6, total HDAC1, total HDAC8, and acetyl-histone H4 expression levels, were assessed by Western blot. […]

In the case of COC(=O)c1ccc(C)c(NCc2ccc(OCc3cn(CCCCCC(=O)Nc4cccc5c4C(=O)N(C4CCC(=O)NC4=O)C5=O)nn3)cc2)c1 (stereo not shown) [33a], the “Hyperacetylation of HDAC8 substrate SMC3” value is reported as “did not show hyperacetylation”.
